We go through three compounds from paper PMC6430017, “Structural and chemical insights into the covalent-allosteric inhibition of the protein kinase Akt” (Chemical Science, 2019).

For one data set, the system named is KU-19-19. In words: Cell viability assay (CellTiter-Glo). It counts as cell-based. As to conditions: Homo sapiens, 120 h; KU-19-19 (bladder), day 5; read-out: Cell viability assay EC50.
A further data set has as its system ZR-75-1. The data set can be described thus: Cell viability assay (CellTiter-Glo). It counts as cell-based. (In general: ATP-based viability assays read luminescence as a measure of living cells.)
In a further data set the target is AKT3 (PKB gamma) (Homo sapiens, UniProt Q9Y243). In words: SelectScreen Z'LYTE kinase profiling. It counts as biochemical. Particulars: ATP at apparent KM.
Chain of AKT3 (PKB gamma) (Q9Y243 whole entry): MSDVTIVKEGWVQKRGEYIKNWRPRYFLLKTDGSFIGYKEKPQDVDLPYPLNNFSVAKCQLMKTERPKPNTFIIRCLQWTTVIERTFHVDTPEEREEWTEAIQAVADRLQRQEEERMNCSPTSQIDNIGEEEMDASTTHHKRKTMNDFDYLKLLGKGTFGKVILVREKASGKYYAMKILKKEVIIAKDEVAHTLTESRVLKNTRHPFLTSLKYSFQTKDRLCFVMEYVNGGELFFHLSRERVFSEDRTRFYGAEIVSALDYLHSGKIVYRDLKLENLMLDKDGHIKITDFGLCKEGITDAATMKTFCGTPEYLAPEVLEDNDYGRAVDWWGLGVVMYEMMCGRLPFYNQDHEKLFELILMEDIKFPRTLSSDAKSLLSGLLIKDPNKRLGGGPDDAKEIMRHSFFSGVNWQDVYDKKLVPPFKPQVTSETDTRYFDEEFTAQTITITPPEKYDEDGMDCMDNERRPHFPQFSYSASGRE
A further data set has as its target AKT1 (PKB alpha) (Homo sapiens, UniProt P31749). In words: SelectScreen Z'LYTE kinase profiling. It counts as biochemical. As to conditions: ATP at apparent KM.
The conditions of data set [1]: human, 3 µM.
Method: For this purpose, we used a microsomal stability assay that is a good predictor for phase I metabolic stability.[50]
Phase I metabolic stability assay
Metabolic stability under oxidative conditions was determined by LCMS-based measuring of
degradation of compounds at 3 µM in human and murine liver microsomes over 60 minutes at 37 °C
Calculating the compound half-life t1/2, the in vitro intrinsic clearance CLint is
A further data set addresses LCK (Homo sapiens, UniProt P06239). The data set can be described thus: SelectScreen Z'LYTE kinase profiling. It counts as biochemical. Particulars: ATP at apparent KM.
Data set [2] deals with T1, full-length Akt (Akt^wt) (Homo sapiens, UniProt P31749). The data set can be described thus: HTRF KinEASE activity-based assay, IC50 determination. The data set is classed as biochemical. On the technique in general: Time-resolved FRET reads energy transfer from a long-lived donor to a nearby acceptor.
T1 sequence (P31749 whole entry): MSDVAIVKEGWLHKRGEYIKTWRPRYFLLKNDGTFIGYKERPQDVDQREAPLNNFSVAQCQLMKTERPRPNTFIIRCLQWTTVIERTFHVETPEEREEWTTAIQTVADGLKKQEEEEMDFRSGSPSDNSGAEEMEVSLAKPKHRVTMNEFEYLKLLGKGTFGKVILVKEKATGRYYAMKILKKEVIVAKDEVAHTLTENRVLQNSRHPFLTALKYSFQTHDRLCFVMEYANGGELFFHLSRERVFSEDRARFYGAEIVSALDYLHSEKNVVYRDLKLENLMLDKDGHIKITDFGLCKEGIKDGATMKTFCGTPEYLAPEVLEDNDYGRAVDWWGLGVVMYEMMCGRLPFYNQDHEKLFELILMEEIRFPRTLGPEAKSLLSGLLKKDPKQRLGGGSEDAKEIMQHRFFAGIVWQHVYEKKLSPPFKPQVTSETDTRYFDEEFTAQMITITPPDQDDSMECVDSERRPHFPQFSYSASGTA
Method: (§1) The biochemical inhibitory activity (IC50) was determined with the HTRF KinEASE assay from Cisbio as
(§2) previously described.1 All reagents for HTRF experiments were purchased from Cisbio Bioassays,
(§3) France. The measurements were analyzed using the Quattro Software Suite for IC50-determination.
(§4) Time-dependent IC50-measurements were performed as described. Briefly, IC50 values were
(§5) determined for twelve different incubation times and afterwards plotted versus accordingly. Data was
(§6) analyzed according to literature procedure.2
The target of a further data set is T2, PRKCE (PKC epsilon) (Homo sapiens, UniProt Q02156).
T2 sequence (Q02156 1-737): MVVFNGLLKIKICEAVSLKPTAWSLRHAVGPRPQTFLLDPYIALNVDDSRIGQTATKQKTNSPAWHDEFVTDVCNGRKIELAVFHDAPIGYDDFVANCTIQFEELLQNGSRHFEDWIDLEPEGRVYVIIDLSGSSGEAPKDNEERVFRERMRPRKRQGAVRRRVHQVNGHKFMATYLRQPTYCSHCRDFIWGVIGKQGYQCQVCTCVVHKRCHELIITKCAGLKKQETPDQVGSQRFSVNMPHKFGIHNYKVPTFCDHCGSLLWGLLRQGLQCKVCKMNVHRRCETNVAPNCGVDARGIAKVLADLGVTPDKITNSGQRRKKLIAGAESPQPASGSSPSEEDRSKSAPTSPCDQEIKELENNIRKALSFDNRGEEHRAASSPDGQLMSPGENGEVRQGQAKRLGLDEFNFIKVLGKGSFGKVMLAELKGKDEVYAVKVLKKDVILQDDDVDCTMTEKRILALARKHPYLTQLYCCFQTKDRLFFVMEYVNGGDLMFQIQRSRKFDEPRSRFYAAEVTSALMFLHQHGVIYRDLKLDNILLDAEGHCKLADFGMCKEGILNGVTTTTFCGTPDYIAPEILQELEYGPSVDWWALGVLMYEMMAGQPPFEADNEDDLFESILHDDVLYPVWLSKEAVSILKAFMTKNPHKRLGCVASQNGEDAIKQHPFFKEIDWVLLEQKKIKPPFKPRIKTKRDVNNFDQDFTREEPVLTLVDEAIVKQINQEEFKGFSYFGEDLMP
The data set can be described thus: SelectScreen Z'LYTE kinase profiling. The data set is classed as biochemical. Particulars: ATP at apparent KM.

Another data set deals with AN3CA. In words: Cell viability assay (CellTiter-Glo). The data set is classed as cell-based. Particulars: Homo sapiens, AN3-CA, 120 h; AN3CA (endometrium), day 5; read-out: Cell viability assay EC50.
Data set [3] has as its target T1, full-length Akt (Akt^wt). In words: Kinetic characterization by time-dependent IC50 measurements. Particulars: from time-dependent IC50. It counts as biochemical.
Method: as §1, §2, §3, §4, §5, §6
Another data set deals with BT-474. In words: Cell viability assay (CellTiter-Glo). Particulars: Homo sapiens, 120 h; BT-474 (breast), day 5; read-out: Cell viability assay EC50. The data set is classed as cell-based.
The next data set addresses T3, Akt1 (Homo sapiens, UniProt P31749).
T3 construct: Purified full-length wtAkt1 was incubated with a 2-fold molar excess
In words: Intact protein mass spectrometry, covalent labeling. The data set is classed as binding. As to conditions: 10 µM protein, 100 µM inhibitor, 1 h, denaturing conditions.

The test system of another data set is MCF-7. The data set can be described thus: Cell viability assay (CellTiter-Glo). The data set is classed as cell-based. Particulars: Homo sapiens, MCF7, 120 h; MCF-7 (breast), day 5; read-out: Cell viability assay EC50.
A further data set concerns T47D. The data set can be described thus: Cell viability assay (CellTiter-Glo). The data set is classed as cell-based. Particulars: Homo sapiens, 120 h; T47D (breast), day 5; read-out: Cell viability assay EC50.
The target of a further data set is CDC42 BPA (MRCKA) (Homo sapiens, UniProt Q5VT25). The data set can be described thus: SelectScreen Z'LYTE kinase profiling. Particulars: ATP at apparent KM. It counts as biochemical.
Chain of CDC42 BPA (MRCKA) (Q5VT25 whole entry): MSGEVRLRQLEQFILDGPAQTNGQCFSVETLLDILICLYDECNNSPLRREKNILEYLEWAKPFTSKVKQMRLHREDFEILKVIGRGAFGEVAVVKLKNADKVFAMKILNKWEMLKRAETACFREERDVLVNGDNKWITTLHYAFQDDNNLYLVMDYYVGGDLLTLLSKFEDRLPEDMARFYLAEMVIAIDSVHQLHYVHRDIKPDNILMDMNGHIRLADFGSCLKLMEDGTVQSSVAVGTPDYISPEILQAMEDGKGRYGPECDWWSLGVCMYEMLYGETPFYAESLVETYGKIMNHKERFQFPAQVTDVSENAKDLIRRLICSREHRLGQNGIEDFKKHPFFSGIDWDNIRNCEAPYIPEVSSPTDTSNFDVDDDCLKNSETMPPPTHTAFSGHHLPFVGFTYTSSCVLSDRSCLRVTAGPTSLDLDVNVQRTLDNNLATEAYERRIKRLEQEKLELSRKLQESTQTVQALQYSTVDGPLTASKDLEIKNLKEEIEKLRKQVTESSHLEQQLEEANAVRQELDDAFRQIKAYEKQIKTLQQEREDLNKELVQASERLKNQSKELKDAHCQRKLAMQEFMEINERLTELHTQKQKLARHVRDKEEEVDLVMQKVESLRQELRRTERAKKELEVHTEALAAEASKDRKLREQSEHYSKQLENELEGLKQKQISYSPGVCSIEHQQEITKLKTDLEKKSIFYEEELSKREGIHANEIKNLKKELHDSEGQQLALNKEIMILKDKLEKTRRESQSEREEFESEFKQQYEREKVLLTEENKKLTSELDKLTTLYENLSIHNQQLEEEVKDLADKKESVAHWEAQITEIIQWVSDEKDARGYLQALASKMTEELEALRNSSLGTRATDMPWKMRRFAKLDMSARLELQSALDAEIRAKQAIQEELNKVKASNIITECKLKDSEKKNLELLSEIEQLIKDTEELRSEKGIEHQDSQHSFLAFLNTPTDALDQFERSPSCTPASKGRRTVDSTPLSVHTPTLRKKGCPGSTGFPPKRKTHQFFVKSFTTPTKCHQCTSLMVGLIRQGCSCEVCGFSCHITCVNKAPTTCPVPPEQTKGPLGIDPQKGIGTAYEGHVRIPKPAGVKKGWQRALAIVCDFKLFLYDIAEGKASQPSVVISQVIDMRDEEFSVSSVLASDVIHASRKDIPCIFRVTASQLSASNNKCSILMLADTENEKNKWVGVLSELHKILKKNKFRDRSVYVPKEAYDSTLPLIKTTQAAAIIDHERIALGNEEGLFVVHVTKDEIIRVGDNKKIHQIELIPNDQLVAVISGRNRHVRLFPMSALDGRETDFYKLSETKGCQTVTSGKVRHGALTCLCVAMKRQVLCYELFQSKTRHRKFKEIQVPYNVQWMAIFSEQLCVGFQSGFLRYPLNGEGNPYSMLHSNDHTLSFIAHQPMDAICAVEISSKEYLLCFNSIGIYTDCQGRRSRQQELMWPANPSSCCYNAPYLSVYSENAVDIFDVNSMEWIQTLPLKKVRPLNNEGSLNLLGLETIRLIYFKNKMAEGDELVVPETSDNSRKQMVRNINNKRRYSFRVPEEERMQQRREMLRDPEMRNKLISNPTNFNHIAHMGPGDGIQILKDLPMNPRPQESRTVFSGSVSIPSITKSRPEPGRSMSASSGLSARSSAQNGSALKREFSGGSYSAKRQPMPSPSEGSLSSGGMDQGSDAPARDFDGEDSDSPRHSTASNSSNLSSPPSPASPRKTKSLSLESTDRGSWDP
Another data set deals with GRK6 (Homo sapiens, UniProt P43250). The data set can be described thus: SelectScreen Z'LYTE kinase profiling. As to conditions: ATP at apparent KM. It counts as biochemical.
Chain of GRK6 (P43250 whole entry): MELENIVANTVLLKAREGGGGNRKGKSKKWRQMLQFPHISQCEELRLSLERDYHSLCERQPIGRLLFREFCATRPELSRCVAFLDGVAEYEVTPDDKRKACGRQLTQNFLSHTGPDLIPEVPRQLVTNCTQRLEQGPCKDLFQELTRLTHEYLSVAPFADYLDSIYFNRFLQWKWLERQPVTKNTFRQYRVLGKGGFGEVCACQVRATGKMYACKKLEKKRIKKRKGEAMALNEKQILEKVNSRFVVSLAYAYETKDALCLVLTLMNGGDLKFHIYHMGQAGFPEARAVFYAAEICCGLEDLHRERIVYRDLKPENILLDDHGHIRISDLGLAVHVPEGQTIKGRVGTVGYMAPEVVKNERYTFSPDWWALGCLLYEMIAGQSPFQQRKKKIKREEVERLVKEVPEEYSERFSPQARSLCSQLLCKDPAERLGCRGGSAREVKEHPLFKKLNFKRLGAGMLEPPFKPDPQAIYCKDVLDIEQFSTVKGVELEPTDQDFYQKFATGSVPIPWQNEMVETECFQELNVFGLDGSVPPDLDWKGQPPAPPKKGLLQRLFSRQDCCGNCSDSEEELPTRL

Chain of LCK (P06239 whole entry): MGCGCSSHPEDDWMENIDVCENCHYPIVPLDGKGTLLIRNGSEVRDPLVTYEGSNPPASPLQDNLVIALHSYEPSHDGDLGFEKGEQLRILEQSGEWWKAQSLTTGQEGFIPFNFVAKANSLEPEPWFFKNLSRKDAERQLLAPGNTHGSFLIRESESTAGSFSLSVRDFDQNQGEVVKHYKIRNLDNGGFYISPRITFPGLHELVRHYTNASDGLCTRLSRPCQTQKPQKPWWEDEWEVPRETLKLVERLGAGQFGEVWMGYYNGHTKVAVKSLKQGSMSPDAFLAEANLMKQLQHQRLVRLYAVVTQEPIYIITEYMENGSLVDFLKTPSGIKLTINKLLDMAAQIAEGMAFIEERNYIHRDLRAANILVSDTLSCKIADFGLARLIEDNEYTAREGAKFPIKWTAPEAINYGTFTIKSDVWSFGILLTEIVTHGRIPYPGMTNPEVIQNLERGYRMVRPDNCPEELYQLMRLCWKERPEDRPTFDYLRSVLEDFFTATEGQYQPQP
T3 sequence (P31749 whole entry): as the sequence (P31749 whole entry) above
Chain of AKT1 (PKB alpha) (P31749 whole entry): as above
Method for AKT1 (PKB alpha): (§7) protein kinases at a compound concentration of 1 µM. Measurements were performed in duplicates
(§8) and at the particular apparent ATP KM of each individual kinase employing the activity based Z’LYTE®
(§9) kinase assay of the SelectScreen® Kinase Profiling Services (ThermoFisher Scientific).
(§10) kinases at a compound concentration of 1 µM. Measurements were performed in duplicates and at
(§11) the particular apparent ATP KM of each individual kinase employing the activity based Z’LYTE® kinase
(§12) assay of the SelectScreen® Kinase Profiling Services (ThermoFisher Scientific).
Method for AKT3 (PKB gamma): as §7, §8, §9, §10, §11, §12
Method for AN3CA: Cell Culture and Viability Assay
(§13) analysis, cells were plated on day 0 into white 384-well cell culture plates (Greiner Bio-One) using a
(§14) Multidrop reagent dispenser (Thermo) at cell numbers that ensure linear and optimal luminescent
(§15) signal intensity (AN3-CA: 800 cells/well; BT-474: 400 cells/well; Dan-G: 400 cells/well; HPAF-II: 400
(§16) cells/well). Then the cells were incubated for 24 h in a humidified atmosphere at 37 °C/5 % CO2. The
(§17) cells were treated with inhibitors in serial dilutions ranging from 30 µM down to 0.1 nM using an Echo
(§18) 520 acoustic liquid handler (Labcyte Inc.). Cell viability was analysed on day 5 using the CellTiter-Glo
(§19) assay (Promega) as per manufacturer’s instructions. Luminescence signal was recorded by an EnVision
(§20) Multilabel 2104 Plate Reader (PerkinElmer) with 500 ms integration time. All data were normalized to
(§21) the plate positive control (30 µM staurosporine) and negative control (DMSO). Finally, the data was
(§22) processed with the Quattro Software Suite using a four parameter logistic model. As a quality control,
(§23) the Z’-factor was calculated from 16 positive and negative control values. Only assay results showing
(§24) a Z’-factor ≥ 0.5 were used for further analysis. All experimental points were measured in duplicates
(§25) for each plate and were replicated in at least three times.
Method for BT-474: Cell Culture and Viability Assay
as §13, §14, §15, §16, §17, §18, §19, §20, §21, §22, §23, §24, §25
Method for CDC42 BPA (MRCKA): as §7, §8, §9, §10, §11, §12
Method for GRK6: as §7, §8, §9, §10, §11, §12
Method for KU-19-19: Cell Culture and Viability Assay
as §13, §14, §15, §16, §17, §18, §19, §20, §21, §22, §23, §24, §25
Method for LCK: as §7, §8, §9, §10, §11, §12
Method for MCF-7: Cell Culture and Viability Assay
as §13, §14, §15, §16, §17, §18, §19, §20, §21, §22, §23, §24, §25
Method for PRKCE (PKC epsilon): as §7, §8, §9, §10, §11, §12
Method for T47D: Cell Culture and Viability Assay
as §13, §14, §15, §16, §17, §18, §19, §20, §21, §22, §23, §24, §25
Method for ZR-75-1: Cell Culture and Viability Assay
as §13, §14, §15, §16, §17, §18, §19, §20, §21, §22, §23, §24, §25

For orientation: EC50 means the concentration at which the effect is half-maximal. Usually inhibition stands for the relative decrease from the control value, in per cent. Broadly, the IC50 is the concentration that inhibits the measured activity by half. The kinact is the rate constant of inactivation at saturating inhibitor. By kinact/KI is commonly meant the second-order rate constant of inactivation. For the compound `C=CC(=O)Nc1ccc2c(c1)n(C1CCN(Cc3ccc(-c4nc5cc[nH]c(=O)c5cc4-c4ccccc4)cc3)CC1)c(=O)n2C` [24b], the half-maximal effective concentration (EC50) in the data set on KU-19-19 is 7160 ± 2110 nM; with ZR-75-1 (Homo sapiens, 120 h, ZR-75-1 (breast), day 5, read-out: Cell viability assay EC50), 2 nM; in the data set on AN3CA, 230 ± 75 nM; in the data set with BT-474, 109 ± 16 nM; in the data set on MCF-7, 32 ± 8 nM; in the data set with T47D, 11 ± 2 nM. For the same compound, in the data set with ZR-75-1 (ZR-75-1 EC50), the “fold higher inhibitory activity than borussertib” value was determined as 2 fold. Besides, the inhibition at 1 µM was 75% on AKT3 (PKB gamma); 98% on AKT1 (PKB alpha); -3% on LCK; 12% on PRKCE (PKC epsilon); 3% at CDC42 BPA (MRCKA); 0% on GRK6. In addition, the “fold lower stability in microsomes” value in [1] is reported as 4 fold. In addition, the “fold loss in inhibitory activity (IC50) compared to 1” value on full-length Akt (Akt^wt) [2] was 3 fold. In addition, half-maximal inhibition against full-length Akt (Akt^wt) [2] (HTRF KinEASE) (IC50) required 3 ± 0.3 nM. This compound returned a Ki at full-length Akt (Akt^wt) [3] of 10.7 ± 0.5 nM. For the same compound, the kinact on full-length Akt (Akt^wt) [3] was 0.00202 s⁻¹. In addition, on full-length Akt (Akt^wt) [3], the kinact/KI amounted to 190000 ± 25000 M⁻¹ s⁻¹. Moreover, the “labeling of Akt1 by mass spectrometry” value on Akt1 is listed as “complete labeling”.
`C=CC(=O)Nc1cccc(C(=O)NC2CCN(Cc3ccc(-c4nc5cc[nH]c(=O)c5cc4-c4ccccc4)cc3)CC2)c1` [30b]: the inhibition at 1 µM is 8% on LCK, 27% at PRKCE (PKC epsilon), 2% on CDC42 BPA (MRCKA) and 3% on GRK6.
`C=CC(=O)Nc1cc(NC(=O)NC2CCN(Cc3ccc(-c4nc5cc[nH]c(=O)c5cc4-c4ccccc4)cc3)CC2)ccc1Cl` [compound 27]: the inhibition at 1 µM at LCK stood at 4%; on PRKCE (PKC epsilon) it was 11%; on CDC42 BPA (MRCKA), 8%.
